Test results as given in patent US20060106099A1, “Novel inhibitors of ubiquitin isopeptidases” (priority 2002, published 2006).

Tests used:
ubiquitin isopeptidases [1] = assay: Ubiquitin isopeptidase activity, Ub-PEST substrate, lysates of treated RKO and HCT 116 cells; assay type: cell-based, human; conditions: cells treated 6, 20 or 60 μM, 12 h
Protocol: A) Inhibition of isopeptidase proteolysis of Ub-PEST substrate. RKO and HCT 116 cells were treated with DMSO vehicle, 6, 20, or 60 μM of Δ12-PGJ2, DBA, NSC-302979, or curcumin, 60 μM PGB1, 60 μM NSC-156236, or 60 μM DPTP for 12 h, 37° C. Cell lysates from each treatment were incubated with Ub-PEST, as described in materials and methods. Samples were fractionated by SDS-PAGE and proteins detected with ubiquitin epitopes immunochemically (HCT 116 ^+/+ western blot shown as example of raw data). […] B) Inhibition of isopeptidase activity by test panel compounds. Isopeptidase activity was determined by measuring via densitometry, the amount of Ub generated by isopeptidase cleavage of Ub-PEST. Bar graph patterns are DMSO vehicle (black), Δ12-PGJ2 (hatched), DBA (horizontal lines), NSC-302979 (white), PGB1 (diagonally downward right lines), and NSC-156236 (diagonally downward left lines). The amount of Ub generated in the vehicle treated sample (panel A, lane 2) is arbitrarily designated 100%.
Cellular isopeptidase enzymatic activity was measured with two assays that used different substrates. In one assay ubiquitin-PEST (Ub-PEST) was used, a full-length ubiquitin molecule with an 18 amino acid c-terminal peptide extension (total mass=10.5 kDa). Ubiquitin isopeptidases specifically cleave the 18 amino acid peptide extension, releasing full-length ubiquitin (8.5 kDa).
Briefly, 6×10^5 cells were incubated with 0-60 μM of test compounds for 12 hrs. Cells were lysed in 50 μL of 25 mM HEPES, 5 mM EDTA, 0.1% CHAPS, 5 mM ATP, pH 7.5. The protein concentration of each sample was adjusted to 0.3 mg/mL and incubated with 50 μg/mL Ub-PEST for 45 minutes at 25° C. Under these conditions, Ub-PEST hydrolysis occurs at a linear rate. 20 μL samples were mixed with 20 μL 2× Laemmli buffer, boiled briefly, and fractionated by SDSPAGE. Isopeptidase activity was monitored by determining the amount of product (8.5 kDa ubiquitin) formation.

ubiquitin isopeptidases [2] = assay: Ubiquitin isopeptidase activity, z-LRGG-AMC substrate, lysates of treated RKO and HCT 116 cells; assay type: cell-based, human; conditions: cells treated 6, 20 or 60 μM, 12 h
Protocol: RKO (upper) and HCT 116 ^+/+ cells (lower) were treated with DMSO vehicle, 6, 20, or 60 μM of Δ12-PGJ2, DBA, NSC-302979, or curcumin, 60 μM PGB1, 60 μM NSC-156236, or 60 μM DPTP for 12 h at 37° C. Cell lysates (0.5 mg/mL) from each treatment were incubated with the isopeptidase substrate, z-LRGG-AMC, for 3 h, 37° C. The amount of AMC cleaved by isopeptidase was determined fluorometrically, as described in Materials and Methods.
The second assay used a fluorescent tetrapeptide, z-LRGG-AMC, as a substrate that mimics the carboxy-terminus of ubiquitin. Isopeptidase activity hydrolyzes the bond between the c-terminal glycine and the fluorophore. This tetrapeptide also undergoes slow proteolysis by the catalytic subunit of the proteasome. To minimize this background rate of proteolysis cell lysates were incubated with 30 μM MG115 for 30 minutes at 4° C., prior to substrate incubation (>90% proteasome inhibition). Cells were teeated as above, lysed in 250 μL of lysis buffer per sample, and adjusted protein concentration to 0.5 mg/mL prior to incubation with MG115. Next, z-LRGG-AMC substrate was added and fluorescence was quantified of the AMC moiety cleaved by isopeptidase action.

[3] = test system: polyubiquitin conjugates in RKO-E6 cells; assay: Accumulation of polyubiquitin in RKO-E6 cells (immunoblot); assay type: cell-based, human; conditions: EC80 or 60 μM, 6-24 h
Protocol: A) Accumulation of polyubiquitin. RKO-E6 cells were treated with DMSO vehicle for 24 h, 37° C., or with the concentrations of test compounds that gave 80% cell death (as determined by cell viability assay at 48 h) for 6, 12, or 24 h, 37° C. […] Schematic depicting p53 degradation via the proteasome pathway in RKO cells versus RKO-E6 cells. The activity of the HPV E6 oncoprotein hastens p53 degradation in RKO-E6 cells. ii. RKO and RKO-E6 cells were treated with vehicle, etoposide (50 μM), MG115 (20 μM), Δ12-PGJ2 (60 μM), NSC-302979 (20 μM, DBA (20 μM), curcumin (60 μM), PGB1 (60 μM), NSC-156236, (60 XM)or DPTP 60 μM for 6 h, 37° C. Lysates were fractionated by SDS-PAGE and their p53 content determined immunochemically. iii. p53 levels were measured by densitometry and the ratio of p53 protein in RKO-E6 cells/RKO cells calculated.
The medium was removed and cells lysed in 50 mM Tris, pH 7.4, 100 mM NaCl, 2 mM EDTA with 0.1% SDS, 0.1% deoxycholate, 1× complete protease inhibitor mixture. Protein concentration was measured by the Bradford method. Equal portions of the total cell lysate were fractionated from each sample (12.5 μg of protein) by SDS-PAGE. Proteins were transferred to poly(vinylidene difluoride) blocked with 5% (w/v) nonfat dry milk in Trisbuffered saline [20 mM Tris-HCl, pH 7.5, 100 mM sodium chloride, 0.1% (v/v) Tween 20]. Proteins were detected immunochemically by using primary antibodies directed against p53 (1:4000) or ubiquitin (1:1000), followed by horseradish peroxidase-conjugated secondary antibodies (1:4000). Antigen-antibody complexes were detected with enhanced chemiluminescence reagents. Gels were scanned and quantified intensities using Kodak 1D Image Analysis Software.

p53 = p53 accumulation, ratio RKO-E6 cells/RKO cells (immunoblot, densitometry); assay type: cell-based, human; conditions: 6 h; etoposide 50 μM, MG115, NSC-302979, DBA 20 μM, others 60 μM
Summary of the method: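 RKO-E6 cells exposed at 37° C for 6, 12 or 24 h to compound concentrations giving 80% cell death at 48 h; for p53, RKO and RKO-E6 cells treated 6 h. Lysates (12.5 μg protein) immunoblotted for ubiquitin or p53 with ECL detection; p53 quantified by densitometry as RKO-E6/RKO ratio.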

RKO cells [4] = test system: RKO cells
Protocol: (§1) Cell viability was measured with MTT reagent as described in materials and methods.
(§2) Cell viability was detected by the MTT assay. Briefly, 1×10^5 cells were incubated per well of a sterile, 96-well assay plate with 0-60 μM of test compounds for 48 hours. MTT reagent was added to each well, final concentration of 0.5 mg/mL, and incubated for an additional 3 hours. The media was aspirated and remaining MTT reagent from each well and added 100 μL of HCl:isopropanol (1:24). The absorbance of each sample was measured at 405 nm.

HCT 116 +/+ cells [5] = test system: HCT 116 +/+ cells
Protocol: as §1, §2

isopeptidase = conditions: cited from earlier work
RKO cells [6] = assay: MTT cell viability assay, RKO cells; conditions: 48 h, MTT, isogenic pair
Protocol: as §1, §2

HCT 116 +/+ cells [7] = assay: MTT cell viability assay, HCT 116 p53 +/+ cells; conditions: 48 h, MTT, isogenic pair
Protocol: as §1, §2

Protocol for HCT 116 −/− cells: as §1, §2

SMILES: CCCCC[C@H](O)/C=C/C1=C(CCCCCCC(=O)O)C(=O)CC1 [PGB1]
- inhibition of isopeptidase cleavage of Ub-PEST (ubiquitin isopeptidases [1]): did not inhibit isopeptidase activity
- inhibition of z-LRGG-AMC hydrolysis by ubiquitin isopeptidases (ubiquitin isopeptidases [2]): did not
- cellular accumulation of polyubiquitin conjugates [3]: did not cause appreciable cellular accumulation of ubiquitin conjugates
- ratio of p53 protein [RKO-E6 cells/RKO cells] (p53): significantly less than unity
- EC50 (RKO cells [4]): > 60 µM
- EC50 (RKO-E6 cells): > 60 µM
- EC50 (HCT 116 +/+ cells [5]): > 60 µM
- EC50 (HCT 116 −/− cells): > 60 µM
- isopeptidase inhibition relative to Δ12-PGJ2 (isopeptidase): inactive
- cell death in RKO compared with RKO-E6 cells (RKO cells [6]): did not cause significant cell death
- cell death in HCT 116 +/+ compared with HCT 116 −/− cells (HCT 116 +/+ cells [7]): did not cause significant cell death
